Data on 3 compounds can be found in patent US5854067A, “Hexokinase inhibitors” (priority 1996, dated 1998).

For test [1], the system named is Glucokinase (GK, hexokinase IV). The note with it: Table 1, GK, cited from earlier work.
Test [2] concerns Hexokinases I, II, and III (HK I-III, low Km hexokinases). The conditions noted are these: Table 1, HK I-III, cited from earlier work.
In test [3] the target is T1, native (wild type) islet glucokinase (Rattus norvegicus, UniProt P17712).
T1 construct: Plasmids containing DNA encoding either intact islet glucokinase; expressed in transfected cells; host or cells: 293 human embryonic kidney cells, transient transfection, crude extract
T1 sequence (P17712 1-465): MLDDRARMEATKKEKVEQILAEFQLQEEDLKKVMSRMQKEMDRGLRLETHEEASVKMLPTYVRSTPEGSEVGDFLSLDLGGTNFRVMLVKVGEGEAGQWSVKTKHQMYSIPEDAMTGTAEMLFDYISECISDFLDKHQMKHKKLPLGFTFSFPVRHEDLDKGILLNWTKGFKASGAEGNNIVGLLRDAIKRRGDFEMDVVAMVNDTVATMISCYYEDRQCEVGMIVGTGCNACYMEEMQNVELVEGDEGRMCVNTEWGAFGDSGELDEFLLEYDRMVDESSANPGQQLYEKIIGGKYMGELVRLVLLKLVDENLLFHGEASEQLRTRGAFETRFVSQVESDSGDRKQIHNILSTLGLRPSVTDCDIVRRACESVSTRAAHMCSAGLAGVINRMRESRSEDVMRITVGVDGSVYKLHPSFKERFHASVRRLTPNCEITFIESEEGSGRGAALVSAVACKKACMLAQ
In words: Radioisotopic glucose phosphorylating activity assay in extracts of transiently transfected 293 cells, with and without G6P. The conditions noted are these: 10 mM unlabeled G6P, 3 and 20 mM glucose, 293 cell extracts. In kind it is biochemical. As for the experimental part: Plasmids containing DNA encoding either intact islet glucokinase, hexokinase I or one of the two hexokinase/glucokinase chimeras were introduced into the human embryonic kidney cell line 293, using Ca2 PO4 co-precipitation. After incubation with the plasmid DNA, cells were cultured for an additional 48 hours.
Assays were performed at 3 and 20 mM glucose. At the lower glucose concentration, hexokinase activity is maximal while glucokinase activity is very low. […] The assay was also performed in the presence and absence of 10 mM unlabeled glucose-6-phosphate (G6P).

Read-outs that look alike come from different tables or passages of the source.

Take `Nc1ncnc2c1ncn2[C@@H]1O[C@H](COP(=O)(O)OP(=O)(O)OP(=O)(O)O)[C@@H](O)[C@H]1O` [ATP]: the Km in test [1] (read-out: Km ATP) was 500 µM; in test [2] (read-out: Km ATP), 200 to 500 µM.

`O=P(O)(O)OC[C@H]1OC(O)[C@H](O)[C@@H](O)[C@@H]1O` (some centres unmarked) [G-6-P, glucose-6-phosphate]: the “effect of glucose-6-phosphate on glucose phosphorylating activity” value in test [3] is reported as “no significant effect”.

As for `OC[C@H]1OC(O)[C@H](O)[C@@H](O)[C@@H]1O` (some centres unmarked) [glucose], the figures for the Km in test [1] (read-out: Km glucose) and in test [2] (read-out: Km glucose) were 5000 to 12000 µM and 20 to 130 µM, respectively.
